For 52 molecules, IC50 results are on record in ChEMBL document CHEMBL5726715 (2018).

A value given as a limit tells only on which side of the number the result lay.

The target in this test is T1, 3-phosphoinositide-dependent protein kinase 1 (Homo sapiens, UniProt O15530).
T1 sequence (O15530 whole entry): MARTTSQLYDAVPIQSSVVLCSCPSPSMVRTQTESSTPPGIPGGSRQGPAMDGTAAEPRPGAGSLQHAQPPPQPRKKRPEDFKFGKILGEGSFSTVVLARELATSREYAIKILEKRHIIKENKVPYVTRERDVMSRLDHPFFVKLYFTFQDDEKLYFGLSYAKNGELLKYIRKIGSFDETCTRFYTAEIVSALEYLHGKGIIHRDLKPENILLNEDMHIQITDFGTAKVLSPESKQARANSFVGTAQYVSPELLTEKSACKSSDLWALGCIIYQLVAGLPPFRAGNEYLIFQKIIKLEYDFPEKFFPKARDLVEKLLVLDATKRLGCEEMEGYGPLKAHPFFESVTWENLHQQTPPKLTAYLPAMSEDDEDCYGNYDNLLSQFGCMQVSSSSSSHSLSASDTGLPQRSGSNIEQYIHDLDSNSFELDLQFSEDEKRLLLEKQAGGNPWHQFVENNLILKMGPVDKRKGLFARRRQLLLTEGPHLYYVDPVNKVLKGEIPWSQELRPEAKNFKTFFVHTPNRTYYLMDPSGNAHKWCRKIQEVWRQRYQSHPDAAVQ
The test is described as follows: Kinase Assay: A PDK1 kinase assay was performed as follows. […] PDK1 protein was divided into two fractions, one of which was subsequently dephosphorylated. To generate dephosphorylated PDK1, the PDK1 was reacted with GST-tagged lambda-phosphatase in vitro. GST was subsequently cleaved proteolytically for both phosphorylated and dephosphorylated PDK1. Protein preparations were run on glutathione Sepharose columns to remove GST and GST-tagged lambda-phosphatase, if present. […] Enzyme activity was determined in a coupled PDK1/AKT/FAM-crosstide assay using either phosphorylated or unphosphorylated PDK1 and phosphorylation of FAM-crosstide was determined by standard IMAP protocol (Molecular Devices). For inhibition studies, compounds were titrated 3-fold in DMSO and diluted 40-fold into assay buffer (10 mM Tris HCl pH7.2; 10 mM MgCl2; 0.01% Triton X-100; 1 mM DTT) containing PDK1, AKT2, and FAM-crosstide. […] To detect assay product, the kinase reaction was combined with Progressive Binding Solution (1:600 Progressive Binding Reagent, 50% Buffer A, 50% Buffer B, Molecular Devices) in a 1:3 ratio.
Regarding `O=C(NCc1cc(OCC(O)CO)cc(-c2c[nH]c3ncccc23)c1)c1cccn(Cc2ccc(F)c(F)c2)c1=O` (configuration not stated), the IC50 was less than 500 nM.

On to `CC(C)Oc1cc(CNC(=O)c2cccn(Cc3cc(F)c(F)c(F)c3)c2=O)cc(-c2c[nH]c3ncccc23)c1`, for which the IC50 was less than 500 nM. Consider `O=C(NCc1cc(-c2c[nH]c3ncccc23)cc[n+]1[O-])c1cccn(Cc2ccc(F)c(F)c2)c1=O`, for which the IC50 was less than 500 nM. As for `O=C(NCc1cncc(-c2c[nH]c3ncccc23)c1)c1cccn(Cc2ccc(F)c(F)c2)c1=O`, the figure is less than 500 nM; as for `O=C(N[C@@H](COc1ccc2[nH]c(=O)[nH]c2c1)c1ccccc1Cl)c1cccn(Cc2cc(F)c(F)c(F)c2)c1=O`, less than 500 nM. As for `O=C(NCc1noc(-c2c[nH]c3ncccc23)n1)c1cccn(Cc2ccc(F)c(F)c2)c1=O`, the figure is less than 500 nM; as for `CN1CCC(Oc2cc(CNC(=O)c3cccn(Cc4ccc(F)c(F)c4)c3=O)cc(-c3c[nH]c4ncccc34)c2)CC1`, less than 500 nM.

Turning to `CC(c1ccc(C(F)(F)F)cc1)n1cccc(C(=O)NCc2noc(-c3c[nH]c4ncccc34)n2)c1=O` (configuration not stated), the IC50 is less than 500 nM.

Turning to `Nc1ncnc2ccc(-c3ccc(CNC(=O)c4cccn(Cc5ccc(F)c(F)c5)c4=O)s3)cc12`, the IC50 is less than 500 nM. As for `COc1ccc(-c2c[nH]c3ncccc23)cc1CNC(=O)c1cccn(Cc2ccc(F)c(F)c2)c1=O`, the figure is less than 500 nM; as for `O=C(Nc1ccnc2ccc(-c3c[nH]c4ncccc34)cc12)c1cccn(Cc2ccc(F)c(F)c2)c1=O`, less than 500 nM; as for `O=C(NCc1cccc(-c2c[nH]c3ncccc23)c1)c1cccn(Cc2ccc(C(F)(F)F)cc2)c1=O`, less than 500 nM. For `C=C[C@H](COc1ccc2[nH]c(=O)[nH]c2c1)NC(=O)c1cccn(Cc2cc(F)c(F)c(F)c2)c1=O`, the IC50 was less than 500 nM.

On to `O=C(NCc1cccc(-c2c[nH]c3nccc(F)c23)c1)c1cccn(Cc2ccc(F)c(F)c2)c1=O`, for which the IC50 is less than 500 nM. As for `O=C(NCc1cccc(-c2c[nH]c3ncc(O)cc23)c1)c1cccn(Cc2ccc(F)c(F)c2)c1=O`, the figure is less than 500 nM; as for `O=C(NCc1ccc(O)c(-c2c[nH]c3ncccc23)c1)c1cccn(Cc2ccc(F)c(F)c2)c1=O`, less than 500 nM; as for `CS(=O)(=O)N1CCC(Oc2cc(CNC(=O)c3cccn(Cc4ccc(F)c(F)c4)c3=O)cc(-c3c[nH]c4ncccc34)c2)CC1`, less than 500 nM. The same measure for `Cc1[nH]c2ncccc2c1-c1cccc(CNC(=O)c2cccn(Cc3ccc(F)c(F)c3)c2=O)c1`: less than 500 nM; for `O=C(NCc1ccc(OCCN2CCOCC2)c(-c2c[nH]c3ncccc23)c1)c1cccn(Cc2ccc(F)c(F)c2)c1=O`: less than 500 nM; for `O=C(NCCOc1ccc2[nH]c(=O)[nH]c2c1F)c1cccn(Cc2ccc(F)c(F)c2)c1=O`: less than 500 nM. Take `O=C(N[C@@H](COc1ccc2[nH]c(=O)[nH]c2c1)C1CC1)c1cccn(Cc2cc(F)c(F)c(F)c2)c1=O`: the IC50 is less than 500 nM.

On to `COc1cnc2[nH]cc(-c3cccc(CNC(=O)c4cccn(Cc5ccc(F)c(F)c5)c4=O)c3)c2c1`, for which the IC50 is less than 500 nM. The same measure for `O=C(NCc1coc(-c2c[nH]c3ncccc23)n1)c1cccn(Cc2ccc(F)c(F)c2)c1=O`: less than 500 nM. Turning to `O=C(NC1CC1)c1cnc2[nH]cc(-c3cccc(CNC(=O)c4cccn(Cc5ccc(F)c(F)c5)c4=O)c3)c2c1`, the IC50 was less than 500 nM. As for `O=C(NCc1cccc(-c2c[nH]c3ncc(C(=O)N4CCOCC4)cc23)c1)c1cccn(Cc2ccc(F)c(F)c2)c1=O`, the figure is less than 500 nM.

As to `C[C@H](COc1ccc2[nH]c(=O)[nH]c2c1)NC(=O)c1cccn(Cc2cc(F)c(F)c(F)c2)c1=O`, the IC50 was less than 500 nM. The same measure for `O=C(NC/C=C/c1ccc2[nH]c(=O)[nH]c2c1)c1cccn(Cc2cc(F)c(F)c(F)c2)c1=O`: less than 500 nM; for `NC(=O)[C@H](COc1ccc2[nH]c(=O)[nH]c2c1)NC(=O)c1cccn(Cc2cc(F)c(F)c(F)c2)c1=O`: less than 500 nM; for `Cn1nc(NC(=O)c2cccn(Cc3ccc(F)c(F)c3)c2=O)c2cc(-c3c[nH]c4ncccc34)ccc21`: less than 500 nM. The same measure for `O=C(NCc1noc(-c2c[nH]c3ncccc23)n1)c1cccn(Cc2cc(F)c(F)c(F)c2)c1=O`: less than 500 nM; for `CN(C)C(=O)COc1cc(CNC(=O)c2cccn(Cc3ccc(F)c(F)c3)c2=O)cc(-c2c[nH]c3ncccc23)c1`: less than 500 nM. For `O=C(NCc1cc(OC2CCCCC2)cc(-c2c[nH]c3ncccc23)c1)c1cccn(Cc2ccc(F)c(F)c2)c1=O`, the IC50 is less than 500 nM. For the molecule `Nc1ncnc2ccc(-c3cccc(CNC(=O)c4cccn(Cc5ccc(F)c(F)c5)c4=O)c3)cc12`, the IC50 was less than 500 nM.

In the case of `NC(=O)c1cc(-c2c[nH]c3ncccc23)cc(CNC(=O)c2cccn(Cc3ccc(F)c(F)c3)c2=O)n1`, the IC50 was less than 500 nM. As for `O=C(NCc1cc(-c2c[nH]c3ncccc23)ccc1O)c1cccn(Cc2ccc(F)c(F)c2)c1=O`, the figure is less than 500 nM; as for `CNC(=O)c1cc(-c2cccc(CNC(=O)c3cccn(Cc4ccc(F)c(F)c4)c3=O)c2)c[nH]1`, less than 500 nM; as for `O=C(NCc1cccc(-c2c[nH]c3ncc(C(=O)N4CCNCC4)cc23)c1)c1cccn(Cc2ccc(F)c(F)c2)c1=O`, less than 500 nM. The same measure for `O=C(O)Cn1nc(NC(=O)c2cccn(Cc3ccc(F)c(F)c3)c2=O)c2cc(-c3c[nH]c4ncccc34)ccc21`: less than 500 nM. The same measure for `O=C(NCc1cc(OC2CCCC2)cc(-c2c[nH]c3ncccc23)c1)c1cccn(Cc2ccc(F)c(F)c2)c1=O`: less than 500 nM; for `COc1cnc2[nH]cc(-c3ccc(CNC(=O)c4cccn(Cc5ccc(F)c(F)c5)c4=O)s3)c2c1`: less than 500 nM; for `COc1ccc(CNC(=O)c2cccn(Cc3ccc(F)c(F)c3)c2=O)cc1-c1c[nH]c2ncccc12`: less than 500 nM. Turning to `O=C(NCc1noc(-c2c[nH]c3ncccc23)n1)c1cc(Cl)cn(Cc2ccc(C(F)(F)F)cc2)c1=O`, the IC50 was less than 500 nM. The same measure for `O=C(NCc1cccc(-c2c[nH]c(C(=O)N3CCOCC3)c2)c1)c1cccn(Cc2ccc(F)c(F)c2)c1=O`: less than 500 nM; for `O=C(O)c1cc(-c2c[nH]c3ncccc23)cc(CNC(=O)c2cccn(Cc3ccc(F)c(F)c3)c2=O)n1`: less than 500 nM. The same measure for `CC(C)(C)OC(=O)N1CCC(Oc2cc(CNC(=O)c3cccn(Cc4ccc(F)c(F)c4)c3=O)cc(-c3c[nH]c4ncccc34)c2)CC1`: less than 500 nM; for `O=C(NCc1cccc(-c2c[nH]c3ncc(C(F)(F)F)cc23)c1)c1cccn(Cc2ccc(F)c(F)c2)c1=O`: less than 500 nM. `O=C(NCc1cc(OS(=O)(=O)c2ccccc2)cc(-c2c[nH]c3ncccc23)c1)c1cccn(Cc2ccc(F)c(F)c2)c1=O`: the IC50 was less than 500 nM. The same measure for `O=C(NCc1cc(OC2CCNCC2)cc(-c2c[nH]c3ncccc23)c1)c1cccn(Cc2ccc(F)c(F)c2)c1=O`: less than 500 nM; for `NC(=O)c1cc(-c2cccc(CNC(=O)c3cccn(Cc4ccc(F)c(F)c4)c3=O)c2)c[nH]1`: less than 500 nM; for `CC(=O)NC[C@@H](NC(=O)c1cccn(Cc2ccc(F)c(F)c2)c1=O)c1nc(-c2c[nH]c3ncccc23)cs1`: less than 500 nM. The same measure for `CCn1nc(NC(=O)c2cccn(Cc3ccc(F)c(F)c3)c2=O)c2cc(-c3c[nH]c4ncccc34)ccc21`: less than 500 nM. As for `NC(=O)COc1cc(CNC(=O)c2cccn(Cc3ccc(F)c(F)c3)c2=O)cc(-c2c[nH]c3ncccc23)c1`, the figure is less than 500 nM.
